We go through 3 compounds from patent US20200000752A1, “Method for Treating Epilepsy” (Vanderbilt University, priority 2016, published 2020).

Usually IC50 stands for the concentration at which inhibition is half-maximal.

Data set [1] concerns the target T1, CYP 2C19 (Homo sapiens, UniProt P33261).
A further data set relates to Scn1a^+/− mice. The settings on record: for Number SWDs: SWDs over 1 sec, 30 min after PTZ 50 mg/kg, n=2, celastrol 0.3 mg/kg intermittent (8th day of drug holiday), diazepam 0.3 mg/kg, stiripentol 150 mg/kg, saline 21.
The subject of data set [2] is cytochrome P450 enzymes (CYPs). As to conditions: cited from earlier work.
The target of a further data set is CYP 2D6 (Homo sapiens, UniProt P10635). The experiment in a line: biochemical.
CYP 2D6, sequence (P10635 whole entry): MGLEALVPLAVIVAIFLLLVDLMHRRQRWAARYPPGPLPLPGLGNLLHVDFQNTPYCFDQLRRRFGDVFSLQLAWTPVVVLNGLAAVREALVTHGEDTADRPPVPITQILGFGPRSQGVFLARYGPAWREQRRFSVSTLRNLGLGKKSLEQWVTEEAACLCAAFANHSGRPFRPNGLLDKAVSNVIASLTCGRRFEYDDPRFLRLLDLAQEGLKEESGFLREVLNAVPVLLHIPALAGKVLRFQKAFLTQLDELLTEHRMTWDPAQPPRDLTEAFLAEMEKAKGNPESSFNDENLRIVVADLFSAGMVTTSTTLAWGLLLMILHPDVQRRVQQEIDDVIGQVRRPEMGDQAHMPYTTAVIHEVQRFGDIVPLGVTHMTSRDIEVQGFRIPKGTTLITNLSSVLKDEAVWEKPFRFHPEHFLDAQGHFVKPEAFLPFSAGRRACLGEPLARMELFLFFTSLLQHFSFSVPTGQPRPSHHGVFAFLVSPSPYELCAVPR
Data set [3] deals with T1, CYP 2C19. Description: biochemical.
Another data set concerns the target CYP 2C9 (Homo sapiens, UniProt P11712). The experiment in a line: biochemical.
For the next data set, the target named is CYP 2C8 (Homo sapiens, UniProt P10632). Description: biochemical.
CYP 2C8, sequence (P10632 whole entry): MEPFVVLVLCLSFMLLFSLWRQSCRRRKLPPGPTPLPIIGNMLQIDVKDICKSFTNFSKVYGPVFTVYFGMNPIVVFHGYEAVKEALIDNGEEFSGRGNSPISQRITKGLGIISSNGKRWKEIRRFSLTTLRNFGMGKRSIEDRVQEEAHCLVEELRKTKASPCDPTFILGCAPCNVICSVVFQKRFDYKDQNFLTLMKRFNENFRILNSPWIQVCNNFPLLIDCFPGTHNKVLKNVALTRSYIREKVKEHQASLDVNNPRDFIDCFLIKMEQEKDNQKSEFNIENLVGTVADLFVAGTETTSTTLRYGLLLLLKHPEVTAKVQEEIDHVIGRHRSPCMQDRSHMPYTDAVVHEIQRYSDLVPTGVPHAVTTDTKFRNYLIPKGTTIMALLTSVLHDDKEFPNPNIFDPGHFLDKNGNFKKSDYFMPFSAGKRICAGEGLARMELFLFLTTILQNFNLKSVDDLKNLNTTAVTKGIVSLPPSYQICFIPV
The next data set deals with CYP 2B6 (Homo sapiens, UniProt P20813). Description: biochemical.
CYP 2B6, sequence (P20813 whole entry): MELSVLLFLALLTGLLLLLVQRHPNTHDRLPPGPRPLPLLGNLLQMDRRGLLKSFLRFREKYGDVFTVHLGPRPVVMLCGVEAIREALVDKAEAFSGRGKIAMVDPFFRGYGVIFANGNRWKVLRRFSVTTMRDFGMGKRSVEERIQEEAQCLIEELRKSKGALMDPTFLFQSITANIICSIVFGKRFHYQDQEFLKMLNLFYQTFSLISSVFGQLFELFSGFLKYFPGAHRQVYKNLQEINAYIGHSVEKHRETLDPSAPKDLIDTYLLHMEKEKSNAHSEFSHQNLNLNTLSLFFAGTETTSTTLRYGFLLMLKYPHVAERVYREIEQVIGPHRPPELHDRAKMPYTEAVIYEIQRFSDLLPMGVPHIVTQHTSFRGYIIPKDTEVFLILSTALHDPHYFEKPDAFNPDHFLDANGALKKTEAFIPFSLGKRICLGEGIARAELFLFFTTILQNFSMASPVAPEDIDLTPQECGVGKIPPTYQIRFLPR
Data set [4] addresses T2, CYP 1A2 (Homo sapiens, UniProt P05177). The experiment in a line: biochemical.
Data set [5] addresses T2, CYP 1A2. Description: CYP inhibition, 1A2.
Another data set deals with MDCKII cells. Description: MDCKII bidirectional assay. Type of data set: in vitro ADME. An excerpt: MDCKII bidirectional assay was run in collaboration with Dr. Shaun Stauffer in Vanderbilt Institute of Chemical Biology (VICB) synthesis core who is a consultant on this project.

“Also recorded” adds a separate entry of the source. Bounds are passed on as bounds.

T1 sequence (P33261 whole entry): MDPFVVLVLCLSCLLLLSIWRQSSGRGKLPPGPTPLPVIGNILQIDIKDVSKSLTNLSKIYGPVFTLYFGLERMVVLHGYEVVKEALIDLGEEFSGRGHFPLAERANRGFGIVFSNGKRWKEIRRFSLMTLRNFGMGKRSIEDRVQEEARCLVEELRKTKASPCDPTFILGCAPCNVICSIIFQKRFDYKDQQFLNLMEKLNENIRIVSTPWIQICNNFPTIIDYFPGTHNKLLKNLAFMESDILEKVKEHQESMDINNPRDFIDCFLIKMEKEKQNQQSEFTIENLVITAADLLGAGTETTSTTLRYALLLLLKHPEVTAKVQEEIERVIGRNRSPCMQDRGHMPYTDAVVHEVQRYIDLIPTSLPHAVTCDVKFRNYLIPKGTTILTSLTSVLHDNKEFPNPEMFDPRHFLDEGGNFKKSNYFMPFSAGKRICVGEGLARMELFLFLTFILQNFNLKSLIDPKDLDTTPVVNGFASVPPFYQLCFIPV
T2 sequence (P05177 whole entry): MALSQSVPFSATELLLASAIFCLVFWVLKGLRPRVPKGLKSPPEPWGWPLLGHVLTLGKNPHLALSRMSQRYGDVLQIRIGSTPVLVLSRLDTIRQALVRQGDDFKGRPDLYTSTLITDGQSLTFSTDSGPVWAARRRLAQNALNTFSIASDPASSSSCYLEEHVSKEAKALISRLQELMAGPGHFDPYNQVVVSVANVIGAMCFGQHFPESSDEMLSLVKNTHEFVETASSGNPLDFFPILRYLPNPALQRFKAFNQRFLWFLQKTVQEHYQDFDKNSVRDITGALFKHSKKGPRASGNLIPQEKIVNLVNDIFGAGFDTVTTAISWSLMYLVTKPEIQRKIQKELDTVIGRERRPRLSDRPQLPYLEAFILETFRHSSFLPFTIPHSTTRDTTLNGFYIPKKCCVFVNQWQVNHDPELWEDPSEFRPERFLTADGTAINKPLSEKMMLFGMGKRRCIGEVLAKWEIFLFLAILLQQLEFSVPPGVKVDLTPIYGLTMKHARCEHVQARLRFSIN
CYP 2C9, sequence (P11712 whole entry): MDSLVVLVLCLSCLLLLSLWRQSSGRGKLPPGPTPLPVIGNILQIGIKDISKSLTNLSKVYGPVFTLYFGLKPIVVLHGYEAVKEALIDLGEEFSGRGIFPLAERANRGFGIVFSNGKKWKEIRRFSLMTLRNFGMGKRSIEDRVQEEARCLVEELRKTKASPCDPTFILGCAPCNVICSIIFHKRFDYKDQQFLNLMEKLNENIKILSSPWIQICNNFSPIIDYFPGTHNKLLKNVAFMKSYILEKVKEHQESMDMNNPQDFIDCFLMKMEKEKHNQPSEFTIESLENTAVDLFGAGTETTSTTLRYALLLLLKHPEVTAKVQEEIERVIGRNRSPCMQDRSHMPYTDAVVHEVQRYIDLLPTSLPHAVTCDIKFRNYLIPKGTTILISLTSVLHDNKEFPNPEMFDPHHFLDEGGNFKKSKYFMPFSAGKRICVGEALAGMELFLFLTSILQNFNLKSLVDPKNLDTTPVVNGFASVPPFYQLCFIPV

Take `CC(C)(C)C(O)/C=C/c1ccc2c(c1)OCO2` (stereo not shown) [Stiripentol]: at CYP 2C19 [1], the “inhibition of 2C19, in words” value is “potent inhibitor; also recorded: very potent inhibitor”. Further, the “Number SWDs” value in the data set with Scn1a^+/− mice is given as 11. In the data set with Scn1a^+/− mice (mouse, in vivo, 300 mg/kg), the appearance and mortality entry is “appeared lethargic and had increased mortality”. Also, the “CYP inhibition as reported in the literature” value in data set [2] is “inhibit CYPs including 1A2, 2C9, 2C19, 2D6 and 3A4”. The IC50 at CYP 2D6 was more than 10 µM; against CYP 2C19 [3], 1.84 µM; against CYP 2C9, more than 10 µM; against CYP 2C8, more than 10 µM; at CYP 2B6 it was 8.82 µM; against CYP 1A2 [4] it was 1.26 µM. At CYP 1A2 [5], the “inhibition of 1A2, in words” value was “potent inhibitor; also recorded: very potent inhibitor”.
As for `CN1C(=O)CN=C(c2ccccc2)c2cc(Cl)ccc21` [Diazepam], the “Number SWDs” value in the data set with Scn1a^+/− mice worked out at 8.
Take `COc1cc(/C=C/C(=O)CC(=O)/C=C/c2ccc(O)c(OC)c2)ccc1O` [curcumin, reference compound]: the “permeability in MDCK II bidirectional assay, in words” value with MDCKII cells is given as “impermeable”.
